Laboratory results taken from patent publication US20250041306A1, “TARGETED PROTEASE DEGRADATION (TED) PLATFORM” (EUBULUS BIOTHERAPEUTICS INC., priority 2021, published 2025).
Where two headings read alike, the source gives them in different places. Numbered stars: 1 amine (or outer) side, 2 acyl side, 3 side chain; on linkers, the order of the positions; unused ones are H or OH. Bridge positions count the residues as written; N and C are the ends. Square brackets hold non-standard residues; d marks the D form. Peptide text beside a SMILES is read from it. I, II: the chains in the order shown. * marks the point of attachment. X2 = NC(=O)c1ccccc1Nc1nc(Nc2ccc(N3CCN(C(=O)NC4CCC(N(CCC#Cc5ccc6c(c5)CN(C5CCC(=O)NC5=O)C6=O)*)CC4)CC3)cc2)ncc1Cl; Succinimide(1-C2H4CO,3-yl) = O=C1CC([*:1])C(=O)N1CCC(=O)[*:2]; PABC = O=C(OCc1ccc(N[*:1])cc1)[*:2]; Thr(ol) = C[C@@H](O)[C@H](N)CO

Key:
Type in all cases: cell-based
[1] = test system: Human Colon Cancer cells Colo205; experiment: Cell proliferation experiment (Alarm blue), Colo205
Description: (§1) The cells were cultured in conventional ways, and the cells should be passed for at least 2 generations before plating. Cells at the logarithmic growth phase were collected, prepared into single cell suspensions and counted. The concentration of cells was adjusted to desired concentration, and cells were inoculated into a 96-well cell culture plate at 100 μl per well. 100 μL of complete medium of the test compound were added to each well, 2 replicate wells for each concentration were set up, and diluted with a 5-fold gradient, and continued to culture for 72 h. All cells were subjected to EC50 test for corresponding samples.
(§2) The fluorescence intensity of each well was detected using the Alarm blue method, and IC50 was calculated.
(§3) IC50 was calculated according to the following formula:
(§4) [formula] • wherein Min, Max and Slope represent the minimum, maximum and slope respectively.

Human Colon Cancer HT-29 = experiment: Cell proliferation experiment (Alarm blue), HT-29
Description: as §1, §2, §3, §4

[2] = test system: Human Small Cell Lung Cancer H69; experiment: Cell proliferation experiment (Alarm blue), H69
Description: as §1, §2, §3, §4

[3] = test system: human gastric carcinoma cells N87; experiment: Cell proliferation experiment (Alarm blue), N87
Description: as §1, §2, §3, §4

[4] = test system: Human Small Cell Lung Cancer NCI-H82; experiment: Cell proliferation experiment (Alarm blue), H82
Description: as §1, §2, §3, §4

[5] = Colo205 cells, 72 h culture, read-out: Anti cell proliferative activity EC50, Colo205
[6] = HT-29 cells, 72 h culture, read-out: Anti cell proliferative activity EC50, HT-29
[7] = H69 cells, 72 h culture, read-out: Anti cell proliferative activity EC50, H69
[8] = N87 cells, 72 h culture, read-out: Anti cell proliferative activity EC50, N87
[9] = H82 cells, 72 h culture, read-out: Anti cell proliferative activity EC50, H82

SMILES	EC50 [1, 5]	EC50 (Human Colon Cancer HT-29; [6])	EC50 [2, 7]	EC50 [3, 8]	EC50 [4, 9]	further results
C[C@H](NC(=O)[C@H](CC(=O)O)NC(=O)[C@H](CC(=O)O)NC(=O)[C@H](CCCNC(=N)N)NC(=O)[C@H](CC(=O)O)NC(=O)CCN1C(=O)CC(SC[C@H](N)C(=O)N[C@@H](Cc2ccccc2)C(=O)N[C@H]2CSSC[C@@H](C(=O)N[C@H](CO)[C@@H](C)O)NC(=O)[C@H]([C@@H](C)O)NC(=O)[C@H](CCCCN)NC(=O)[C@@H](Cc3c[nH]c4ccccc34)NC(=O)[C@H](Cc3ccccc3)NC2=O)C1=O)C(=O)N[C@@H](CC(N)=O)C(=O)Nc1ccc(COC(=O)N(CCC#Cc2ccc3c(c2)CN(C2CCC(=O)NC2=O)C3=O)C2CCC(NC(=O)N3CCN(c4ccc(Nc5ncc(Cl)c(Nc6ccccc6C(N)=O)n5)cc4)CC3)CC2)cc1 (some centres unmarked) [UB-181343] (I: H-CFCF[dW]KTC[Thr(ol)] / II: DRDDAN[PABC]-X2; linker I:1-II:N via Succinimide(1-C2H4CO,3-yl); disulfide I:3-I:8)	–	–	–	–	–	EC50 ([1]; 72 h): 285 nM; EC50 (Human Colon Cancer HT-29; 72 h): > 1000 nM; EC50 ([2]; 72 h): 738 nM; EC50 ([3]; 72 h): 305 nM; EC50 ([4]; 72 h): 103 nM
CNC(=O)c1ccccc1Nc1nc(Nc2ccc(N3CCN(C(=O)N[C@H]4CC[C@@H](N(CCC#Cc5ccc6c(c5)CN(C5CCC(=O)NC5=O)C6=O)C(=O)OC(C)C(C)SSC[C@@H](NC(=O)CC[C@@H](NC(=O)c5ccc(NCc6cnc7nc(N)[nH]c(=O)c7n6)cc5)C(=O)O)C(=O)N[C@H](Cc5ccccc5)C(=O)N[C@H]5CSSC[C@@H](C(=O)N[C@H](CO)[C@@H](C)O)NC(=O)[C@H]([C@@H](C)O)NC(=O)[C@H](CCCCN)NC(=O)[C@@H](Cc6c[nH]c7ccccc67)NC(=O)[C@H](Cc6ccccc6)NC5=O)CC4)CC3)cc2)ncc1Cl (some centres unmarked) [UB-181267]	519 nM	> 1000 nM	> 1000 nM	> 1000 nM	168 nM	–
CNC(=O)c1ccccc1Nc1nc(Nc2ccc(N3CCN(C(=O)N[C@H]4CC[C@@H](N(CCC#Cc5ccc6c(c5)CN(C5CCC(=O)NC5=O)C6=O)C(=O)OCCSSC[C@H](N)C(=O)N[C@H](Cc5ccccc5)C(=O)N[C@H]5CSSC[C@@H](C(=O)N[C@H](CO)[C@@H](C)O)NC(=O)[C@H]([C@@H](C)O)NC(=O)[C@H](CCCCN)NC(=O)[C@@H](Cc6c[nH]c7ccccc67)NC(=O)[C@H](Cc6ccccc6)NC5=O)CC4)CC3)cc2)ncc1Cl (some centres unmarked) [UB-181299]	302 nM	> 1000 nM	> 1000 nM	679 nM	246 nM	–
CC(C)c1cc(-c2nnc(O)n2-c2ccc3c(ccn3CCC3CCN(C(=O)CCSSCCOC(=O)N(CCC#Cc4ccc5c(c4)CN(C4CCC(=O)NC4=O)C5=O)C4CCC(NC(=O)N5CCN(c6ccc(Nc7ncc(Cl)c(Nc8ccccc8C(N)=O)n7)cc6)CC5)CC4)CC3)c2)c(O)cc1O (centres unmarked) [UB-181294]	301 nM	865 nM	> 1000 nM	818 nM	245 nM	–
CNC(=O)c1ccccc1Nc1nc(Nc2ccc(N3CCC(NCC#Cc4ccc5c(c4)CN(C4CCC(=O)NC4=O)C5=O)CC3)cc2)ncc1Cl (centres unmarked) [UB-181269]	–	–	–	–	–	EC50 ([1]; Homo sapiens, COLO 205, 72 h, Colo205 cells, 72 h culture, read-out: Anti cell proliferative activity EC50, Colo205): 10.7 nM; EC50 (Human Colon Cancer HT-29; Homo sapiens, HT-29 cells, 72 h culture, read-out: Anti cell proliferative activity EC50, HT-29): 35.5 nM; EC50 ([2]; Homo sapiens, NCI-H69, H69 cells, 72 h culture, read-out: Anti cell proliferative activity EC50, H69): > 1000 nM; EC50 ([3]; Homo sapiens, 72 h, N87 cells, 72 h culture, read-out: Anti cell proliferative activity EC50, N87): 28.8 nM; EC50 ([4]; Homo sapiens, NCI-H82, 72 h, H82 cells, 72 h culture, read-out: Anti cell proliferative activity EC50, H82): 11.6 nM
C[C@H](NC(=O)CCCCCN1C(=O)CC(SC[C@H](N)C(=O)N[C@@H](Cc2ccccc2)C(=O)N[C@H]2CSSC[C@@H](C(=O)N[C@H](CO)[C@@H](C)O)NC(=O)[C@H]([C@@H](C)O)NC(=O)[C@H](CCCCN)NC(=O)[C@@H](Cc3c[nH]c4ccccc34)NC(=O)[C@H](Cc3ccccc3)NC2=O)C1=O)C(=O)N[C@@H](C)C(=O)N[C@@H](CC(N)=O)C(=O)Nc1ccc(COC(=O)N(CCC#Cc2ccc3c(c2)CN(C2CCC(=O)NC2=O)C3=O)C2CCC(NC(=O)N3CCN(c4ccc(Nc5ncc(Cl)c(Nc6ccccc6C(N)=O)n5)cc4)CC3)CC2)cc1 (some centres unmarked) [UB-181285]	62.1 nM	528 nM	> 1000 nM	50 nM	125 nM	–
CC(OC(=O)N(CCC#Cc1ccc2c(c1)CN(C1CCC(=O)NC1=O)C2=O)C1CCC(NC(=O)N2CCN(c3ccc(Nc4ncc(Cl)c(Nc5ccccc5C(N)=O)n4)cc3)CC2)CC1)C(C)SSC[C@H](NC(=O)CCOCCOCCOCCOCCOCCOCCOCCOCCNC(=O)CC[C@H](NC(=O)c1ccc(NCc2cnc3nc(N)[nH]c(=O)c3n2)cc1)C(=O)O)C(=O)N[C@H](Cc1ccccc1)C(=O)N[C@H]1CSSC[C@@H](C(=O)N[C@H](CO)[C@@H](C)O)NC(=O)[C@H]([C@@H](C)O)NC(=O)[C@H](CCCCN)CC(=O)[C@@H](Cc2c[nH]c3ccccc23)NC(=O)[C@H](Cc2ccccc2)NC1=O (some centres unmarked) [UB-181280]	1.9 nM	> 1000 nM	> 1000 nM	> 1000 nM	647 nM	–
